Results: PubChem BioAssay AID1845219 (Molecular Pharmacology Branch, DTP, NCI, 2023)

Test system: SYO-1 tumor spheroids, viability % test/control
Experiment: Anticancer human tumor SYO-1 cell line growth inhibition;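 further: spheroids exposed to agents for 7 days before viability read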;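 on viability, T/C: 100% = DMSO vehicle control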
Conditions: spheroids with HUVEC and MSC; for IC50: curve of first compound; for viability, T/C: stronger effect = lower value
How it was run: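 Complex tumor spheroids combined malignant cells with endothelial cells and mesenchymal stem cells. DNA-damaging drugs and DNA repair inhibitors were tested alone and in combination, at half-log dilutions down from clinical Cmax (top 10 microM if Cmax unknown), 0.25% DMSO final.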

[1] = second compound 0.003 µM, first compound 0.0316 µM
[2] = second compound 0.003 µM, first compound 0.1 µM
[3] = second compound 0.003 µM, first compound 0.316 µM
[4] = second compound 0.003 µM, first compound 1 µM
[5] = second compound 0.003 µM, first compound 3.16 µM
[6] = second compound 0.003 µM, first compound 10 µM
[7] = second compound 0.00949 µM, first compound 0.0316 µM
[8] = second compound 0.00949 µM, first compound 0.1 µM
[9] = second compound 0.00949 µM, first compound 0.316 µM
[10] = second compound 0.00949 µM, first compound 1 µM
[11] = second compound 0.00949 µM, first compound 3.16 µM
[12] = second compound 0.00949 µM, first compound 10 µM
[13] = second compound 0.03 µM, first compound 0.0316 µM
[14] = second compound 0.03 µM, first compound 0.1 µM
[15] = second compound 0.03 µM, first compound 0.316 µM
[16] = second compound 0.03 µM, first compound 1 µM
[17] = second compound 0.03 µM, first compound 3.16 µM
[18] = second compound 0.03 µM, first compound 10 µM
[19] = second compound 0.0949 µM, first compound 0.0316 µM
[20] = second compound 0.0949 µM, first compound 0.1 µM
[21] = second compound 0.0949 µM, first compound 0.316 µM
[22] = second compound 0.0949 µM, first compound 1 µM
[23] = second compound 0.0949 µM, first compound 3.16 µM
[24] = second compound 0.0949 µM, first compound 10 µM
[25] = second compound 0.3 µM, first compound 0.0316 µM
[26] = second compound 0.3 µM, first compound 0.1 µM
[27] = second compound 0.3 µM, first compound 0.316 µM
[28] = second compound 0.3 µM, first compound 1 µM
[29] = second compound 0.3 µM, first compound 3.16 µM
[30] = second compound 0.3 µM, first compound 10 µM

SMILES	IC50 (second compound 0.003 µM)	IC50 (second compound 0.00949 µM)	IC50 (second compound 0.03 µM)	IC50 (second compound 0.0949 µM)	IC50 (second compound 0.3 µM)	viability, T/C [1]	viability, T/C [2]	viability, T/C [3]	viability, T/C [4]	viability, T/C [5]	viability, T/C [6]	viability, T/C [7]	viability, T/C [8]	viability, T/C [9]	viability, T/C [10]	viability, T/C [11]	viability, T/C [12]	viability, T/C [13]	viability, T/C [14]	viability, T/C [15]	also measured
CC(C)n1c(=O)n(C)c2cnc3cc(F)c(-c4ccc(OCCCN5CCCCC5)nc4)cc3c21 + CC[C@@]1(O)C(=O)OCc2c1cc1n(c2=O)Cc2cc3c(CN(C)C)c(O)ccc3nc2-1	< 31.6 nM	< 31.6 nM	< 31.6 nM	< 31.6 nM	< 31.6 nM	7.3%	7.98%	8.08%	5.73%	1.45%	0.47%	2.88%	3.1%	2.8%	2.56%	1.27%	0.3%	2.53%	2.44%	2.23%	viability, T/C [16]: 2.14%; viability, T/C [17]: 1.02%; viability, T/C [18]: 0.26%; viability, T/C [19]: 1.61%; viability, T/C [20]: 1.69%; viability, T/C [21]: 1.67%; viability, T/C [22]: 1.34%; viability, T/C [23]: 1.18%; viability, T/C [24]: 0.25%; viability, T/C [25]: 1.48%; viability, T/C [26]: 1.31%; viability, T/C [27]: 1.3%; viability, T/C [28]: 1.31%; viability, T/C [29]: 0.93%; viability, T/C [30]: 0.28%
CC1COCCN1c1cc(-c2ccnn2C)c2ccnc(-c3ccn[nH]3)c2n1 (stereo not given) + CC[C@@]1(O)C(=O)OCc2c1cc1n(c2=O)Cc2cc3c(CN(C)C)c(O)ccc3nc2-1	< 31.6 nM	< 31.6 nM	< 31.6 nM	< 31.6 nM	< 31.6 nM	2.41%	1.6%	1.52%	1.01%	0.46%	0.49%	1.89%	1.76%	1.42%	0.94%	0.47%	0.42%	1.75%	1.64%	1.18%	viability, T/C [16]: 0.74%; viability, T/C [17]: 0.43%; viability, T/C [18]: 0.42%; viability, T/C [19]: 1.31%; viability, T/C [20]: 1.48%; viability, T/C [21]: 0.96%; viability, T/C [22]: 0.68%; viability, T/C [23]: 0.44%; viability, T/C [24]: 0.41%; viability, T/C [25]: 1.79%; viability, T/C [26]: 1.55%; viability, T/C [27]: 1.05%; viability, T/C [28]: 0.66%; viability, T/C [29]: 0.47%; viability, T/C [30]: 0.49%
COc1cc(C)[nH]c(=O)c1CN1CCc2c(Cl)cc(C(OC)C3COC3)c(Cl)c2C1=O (stereo not given) + CC[C@@]1(O)C(=O)OCc2c1cc1n(c2=O)Cc2cc3c(CN(C)C)c(O)ccc3nc2-1	777 nM	< 31.6 nM	< 31.6 nM	< 31.6 nM	< 31.6 nM	99.8%	96.1%	71.5%	44.5%	33.9%	32.8%	22.7%	18.1%	8.42%	5.82%	5.77%	4.94%	1.81%	2.29%	2.26%	viability, T/C [16]: 2.14%; viability, T/C [17]: 2.28%; viability, T/C [18]: 2.42%; viability, T/C [19]: 1.63%; viability, T/C [20]: 1.59%; viability, T/C [21]: 1.59%; viability, T/C [22]: 1.68%; viability, T/C [23]: 1.72%; viability, T/C [24]: 1.9%; viability, T/C [25]: 2%; viability, T/C [26]: 2.17%; viability, T/C [27]: 2.06%; viability, T/C [28]: 1.88%; viability, T/C [29]: 1.89%; viability, T/C [30]: 2.12%
COc1ccc([C@@H](O)c2cc(-c3ncnc4cc(N5CCOCC5)ccc34)c(F)cc2Cl)nn1 + CC[C@@]1(O)C(=O)OCc2c1cc1n(c2=O)Cc2cc3c(CN(C)C)c(O)ccc3nc2-1	1770 nM	< 31.6 nM	< 31.6 nM	< 31.6 nM	< 31.6 nM	94.3%	99.1%	94.7%	87.6%	11.8%	2.63%	41.7%	33.1%	44.8%	17.1%	1.57%	0.79%	1.67%	1.43%	1.42%	viability, T/C [16]: 0.87%; viability, T/C [17]: 0.63%; viability, T/C [18]: 0.71%; viability, T/C [19]: 1.2%; viability, T/C [20]: 1.26%; viability, T/C [21]: 1.18%; viability, T/C [22]: 1.01%; viability, T/C [23]: 0.75%; viability, T/C [24]: 0.54%; viability, T/C [25]: 1.43%; viability, T/C [26]: 1.86%; viability, T/C [27]: 1.46%; viability, T/C [28]: 0.88%; viability, T/C [29]: 0.2%; viability, T/C [30]: 0.21%
[2H]c1nc(C)nc([2H])c1-c1cc(NC[C@@H](C)c2cccc3c(C(=O)NC)ccnc23)ncn1 + CC[C@@]1(O)C(=O)OCc2c1cc1n(c2=O)Cc2cc3c(CN(C)C)c(O)ccc3nc2-1	> 10000 nM	< 31.6 nM	< 31.6 nM	< 31.6 nM	< 31.6 nM	92.5%	99.4%	94.6%	93%	92.3%	93.7%	25.9%	31.1%	28.9%	20%	19.2%	17.2%	1.86%	2.19%	1.77%	viability, T/C [16]: 2.01%; viability, T/C [17]: 1.73%; viability, T/C [18]: 1.75%; viability, T/C [19]: 1.57%; viability, T/C [20]: 1.61%; viability, T/C [21]: 1.6%; viability, T/C [22]: 1.39%; viability, T/C [23]: 1.9%; viability, T/C [24]: 1.55%; viability, T/C [25]: 1.71%; viability, T/C [26]: 1.76%; viability, T/C [27]: 2.05%; viability, T/C [28]: 1.52%; viability, T/C [29]: 1.73%; viability, T/C [30]: 2.12%
